Assay results as given in patent publication US5561042A, “Diamine platinum naphthalimide complexes as antitumor agents” (Cancer Therapy and Research Center, priority 1995, dated 1996).
Entries after “also recorded” stand apart in the source; their conditions may differ.

Columns and labels:
[1] = tested on: poly (dG.dC) - poly (dG.dC); test: Ethidium bromide displacement, poly(dG.dC)-poly(dG.dC); assay type: binding; details: for Ratio (AT/GC): FI50 poly(dA.dT)-poly(dA.dT) / FI50 poly(dG.dC)-poly(dG.dC); for IC50: ethidium bromide displacement, 1 μM DNA, 1.26 μM ethidium bromide, pH 7.0, read-out: FI50, poly (dG.dC) - poly (dG.dC)
Procedure: (§1) A 10× Binding solution was prepared by combining 0.93 ml of an aqueous NaCl solution (5M), 2.0 ml of an aqueous Tris HCl (500 mM) solution, 0.1 ml of an EDTA solution (500 mM) and 46.97 ml of water. The resultant solution was 93 mM in NaCl, 20 mM in Tris HCl, and 1 mM in EDTA. Stock DNA solution were prepared as follows: Poly (dG·dC)-(dG·dC) (ε254=8.4/mM; 27-7910-02), poly(dA·dT)-(dA·dT) (ε262=6.6/mM; 27-7870-02), and lambda DNA (ε260-7.0/mM; 27-4111-01) were purchased from Pharmacia. Solutions were prepared by resuspending either poly (dG·dC)-(dG·dC) or poly(dA·dT)-(dA·dT)in 1 ml of 10× DNA Binding Solution. Lambda DNA is already in solution as purchased.
(§2) Poly (dG·dC)-(dG·dC), poly(dA·dt)-(dA·dt) and lambda DNA concentrations were determined as follows: 980 μl of 10× DNA Binding Solution was pipetted into a 1 ml cuvette. A blank was run on the UV spectrophotometer. 20 μl of the DNA stock of unknown concentration was then added into the cuvette. The sample was then scanned between 210 nm to 500 nm and the absorbance recorded at 254 nm for poly(dG·dC)-(dG·dC), at 262 nm for poly(dA·dT)-(dA·dT) and at 260 nm for lambda DNA. The solution was transferred to a clean tube. This procedure was followed for three different solutions with the absorbance taken as the average of the three. The concentration of poly(dG·dC)-(dG·dC) stock was calculated to be A254 /8.4×1000 (in μM). The concentration of poly(dA·dT)-(dA·dT) stock was calculated to be A262 /6.6×1000 (in μM). The concentration of lambda DNA stock was calculated to be A260 /7.0×1000 (in μM).
(§3) The binding of the bis-naphthalimides to DNA and to synthetic polynucleotide duplexes was determined by an ethidium bromide displacement assay that measures the reduction of fluorescence when ethidium bromide is displaced from DNA (Baguley, 1981). The fluorescence intensity of a 3 ml solution containing 9.3 mM NaCl, 2 mM Tris-HCl (pH 7.0), 100 μM EDTA, 1 μM DNA (in nucleotides) and 1.26 μM ethidium bromide in a quartz cuvette was measured at the excitation (546 nm) and emission (600 nm) wavelengths on a Shimadzu RF5000U spectrofluorometer. Graded concentrations of agent were then added and the fluorescence intensity was measured. The concentration of compound required to reduce the fluorescence intensity by 50% of that of control (FI50) was determined. Therefore, the lower the FI50 the stronger the binding affinity a particular compound has for DNA.
(§4) The ability of bis-naphthalimides of the present invention and the known anti-cancer agents compound 22 and DMP840, (R,R)-2,2'[1,2-ethanediylbis[imino(1-methyl-2,1-ethanediyl)]]-bis[5-nitro- 1H benz[de]isoquinoline-1,3-(2H)dione]dimethanesulfonate, to bind to DNA and to synthetic oligonucleotide duplexes was measured using an ethidium bromide displacement assay. Ethidium bromide, a known DNA intercalator, has no fluorescence in the absence of DNA; however, fluorescence intensity increases when ethidium bromide binds to DNA. The ethidium bromide displacement assay measures the decrease in fluorescence intensity caused by DNA-bound ethidium bromide with DNA interacting agents.

B16 murine melanoma = test: B16 melanoma in vivo, survival of B6D2F1 mice; details: for T/C: mean survival treated/control
Procedure: B6D2F1 mice received i.p. inocula of B16 murine melanoma brei prepared from B16 tumors growing subcutaneously in mice (day 0). On day 1, rumored mice were treated with drugs or vehicle control; the route of drug administration and schedule were selected as appropriate for the study in question. If dosing information for agents was not available, the maximum tolerated dose (MTD) was determined in initial dose finding experiments in non-tumored mice. In a typical experiment, drugs were given at their MTD and 1/2 MTD doses i.p. on a daily×5 schedule.
The mean survival times of all groups were calculated, and results were expressed as mean survival of treated mice/mean survival of control mice (T/C)×100%. A T/C value of 150 means that the mice in the treated group lived 50% longer than those of the control group; this is sometimes referred to as the increase in life space, or ILS value.
Mice that survived for 60 days were considered long term survivors, or cures, in the B16 model. The universally accepted cut-off for activity in this model, which has been used for years by the National Cancer Institute, is T/C=125.
Statistics were performed on the data using primarily the log rank p-value test.

[2] = tested on: HT29 Human Colon Carcinoma cell line; test: In vitro growth inhibition (MTT), HT29 colon carcinoma; assay type: cell-based; details: 6 days
Description: (§5) P388 murine leukemic cell line was obtained from the DCT Tumor Repository (National Cancer Institute, Frederick Cancer Research and Development, Frederick Md. 21702). HT29 Human Colon Carcinoma cell line was obtained from the American Type Culture Collection (12301 Parklawn Drive, Rockville, Md. 20852). B16 Melanoma cell line was obtained from DuPont Merck Pharmaceutical Company (Glenolden, Pa. 19036). MCF-7 Human Breast Carcinoma cell line was a gift from Dr. K. Osborne (Department of Medicine, The University of Texas Health Science Center at San Antonio, San Antonio, Tex. 78284). All cell lines were incubated at 37° C. in a humidified atmosphere of 5% CO2 -95% air. Murine B16 melanoma cell line was grown in RPMI 1640 medium supplemented with 10% heat-inactivated fetal bovine serum, 2 mM L-glutamine, 50 units/ml penicillin, 50 μg/ml streptomycin, 25 μg/ml gentamycin, 0.75% sodium bicarbonate, 10 mM HEPES buffer (pH 7.4), and 0.06 mg/ml AntiPPLO. Murine P388 leukemic and the human HT-29 colon adenocarcinoma cell lines were maintained in RPMI 1640 medium supplemented with 10% heat-inactivated fetal bovine serum. MCF-7M human breast adenocarcinoma was maintained in IMEM medium supplemented with 5% non heat-inactivated fetal bovine serum and 1 nM insulin.
(§6) Exponentially growing cells (1-2×10^3 cells, unless specified otherwise) in 0.1 ml medium were seeded on day 0 in a 96-well microtiter plate. On day 1, 0.1 ml aliquots of medium containing graded concentrations of test compounds were added in duplicate to the cell plates. After incubation at 37° C. in a humidified incubator for 3 days (P388, B16) or 6 days (HT-29, MCF-7M), the plates were centrifuged briefly and 100 μl of the growth medium was removed. Cell cultures were incubated with 50 μl of 3-(4,5-dimethylthiazol-2-yl)-2,5-diphenyl-tetrazolium bromide [MTT, 1 mg/ml in Dulbecco's phosphate buffered saline (PBS)] for 4 hr at 37° C. The resulting purple formazan precipitate was solubilized with 200 μl of 0.04N HCl in isopropyl alcohol. Absorbance was monitored in a BioRad Model 3550 Microplate Reader at a test wavelength of 570 nm and a reference wavelength of 630 nm. The absorbance was transferred to a PC 486 computer. The IC50 values were determined by a computer program (EZ-ED50) that fit all of the data to the following four-parameterlogistic equation:
(§7) Y=((Am -Ao)/(1+(X/IC50)^n))+Ao
(§8) where Am is the absorbance of control cells, Ao is the absorbance of cells in the presence of highest agent concentration, Y is the observed absorbance, X is the agent concentration, IC50 is the concentration of agent that inhibits the cell growth by 50% of control cells (based on the absorbance) and n is the slope of the curve.

Lambda DNA = test: Ethidium bromide displacement, lambda DNA; assay type: binding; details: 1 μM DNA, 1.26 μM ethidium bromide, pH 7.0, read-out: FI50, Lambda DNA
Procedure: as §1, §2, §3, §4

[3] = tested on: MCF-7 Human Breast Carcinoma cell line; test: In vitro growth inhibition (MTT), MCF-7 breast carcinoma; assay type: cell-based; details: 6 days
Description: as §5, §6, §7, §8

[4] = target: poly (dA.dT) - poly (dA.dT); test: Ethidium bromide displacement, poly(dA.dT)-poly(dA.dT); assay type: binding; details: 1 μM DNA, 1.26 μM ethidium bromide, pH 7.0, read-out: FI50, poly (dA.dT) - poly (dA.dT)
Procedure: as §1, §2, §3, §4

[5] = tested on: P388 murine leukemic cell line; test: In vitro growth inhibition (MTT), P388 leukemia; assay type: cell-based; details: 3 days
Description: as §5, §6, §7, §8

[6] = tested on: Murine B16 melanoma cell line; test: In vitro growth inhibition (MTT), B16 melanoma; assay type: cell-based; details: MTT, 3 days
Description: as §5, §6, §7, §8

DNA = test: Ethidium bromide displacement, DNA binding in general
Procedure: as §3
as §4, with “The ethidium bromide displacement assay measures the decrease in fluorescence intensity caused by DNA-bound ethidium bromide with DNA interacting agents.” left out

## O=C1c2cccc3cc([N+](=O)[O-])cc(c23)C(=O)N1CCNCCNCCN1C(=O)c2cccc3cc([N+](=O)[O-])cc(c23)C1=O [Compound 22, 2,2'[1,2-ethanediylbis[imino(2,1-ethanediyl)]]-bis[5-nitro-1H-benz[de]isoquinoline-1,3-(2H)-dione]dimethanesulfonate]
[1]
  Ratio (AT/GC): 16.5
B16 murine melanoma; 2.5 mg/kg, q.d. × 5, i.p.
  60-Day Survivors: 0
  Wt. Ch. (%) (Day 7): -0.17%
  T/C: 141%

## O=C1c2cccc3cc([N+](=O)[O-])cc(c23)C(=O)N1CCNCC[S+]([O-])CCN1C(=O)c2cccc3cc([N+](=O)[O-])cc(c23)C1=O (stereo not shown) [Compound 13]
[2]
  IC50: 0.2 nM
Lambda DNA
  IC50: 180 nM
[3]
  IC50: < 0.1 nM
[4]
  IC50: 3850 nM
[1]
  Ratio (AT/GC): 212.6
  IC50: 18 nM
[5]
  IC50: < 5 nM
[6]
  IC50: 1.6 nM

## O=C1c2cccc3cc([N+](=O)[O-])cc(c23)C(=O)N1CCNCCNCCN1C(=O)c2cccc3cc([N+](=O)[O-])cc(c23)C1=O [Compound 23, 2,2'[1,2-ethanediylbis[imino(2,1-ethanediyl)]]-bis[5-nitro-1H-benz[de]isoquinoline-1,3-(2H)-dione]]
B16 murine melanoma; 2.5 mg/kg, q.d. × 5, i.p.
  60-Day Survivors: 0
  Wt. Ch. (%) (Day 7): 0.95%
  T/C: 162%

## O=P1(N(CCCl)CCCl)NCCCO1 (stereo not shown) [Cytoxan]
B16 murine melanoma; 150 mg/kg, q.d. × 5, i.p.
  60-Day Survivors: 0
  Wt. Ch. (%) (Day 7): -12.2%
  T/C: 175%
B16 murine melanoma; 300 mg/kg, q.d. × 1, i.p.
  60-Day Survivors: 0
  Wt. Ch. (%) (Day 7): -6.6%
  T/C: 197%
B16 murine melanoma; mouse, in vivo
  highest effective dose: 300 mg/kg

## O=C1c2cccc3cc([N+](=O)[O-])cc(c23)C(=O)N1CCNCC[S+]([O-])CCN1C(=O)c2cccc3cc([N+](=O)[O-])cc(c23)C1=O (stereo not shown) [Compound 12]
[2]
  IC50: 1.7 nM
Lambda DNA
  IC50: 169 nM
[3]
  IC50: 1.6 nM
[4]
  IC50: 6380 nM
[1]
  Ratio (AT/GC): 51.06
  IC50: 125 nM
[5]; Mus musculus, P388, 72 h
  IC50: 9 nM
[6]
  IC50: 6.3 nM

## O=C1c2cccc3cc([N+](=O)[O-])cc(c23)C(=O)N1CCNCCOCCN1C(=O)c2cccc3cc([N+](=O)[O-])cc(c23)C1=O [Compound 6]
DNA
  DNA binding (in words): dose-dependent decrease in fluorescence intensity
B16 murine melanoma; 15 mg/kg, q.d. × 5, i.p.
  60-Day Survivors: 0
  Wt. Ch. (%) (Day 7): -7.4%
  T/C: 210%
B16 murine melanoma; 30 mg/kg, q.d. × 5, i.p.
  60-Day Survivors: 0
  Wt. Ch. (%) (Day 7): -16.4%
  T/C: 233%
B16 murine melanoma; mouse, in vivo
  activity against B16 melanoma in vivo (in words): potent activity against B16 melanoma in vivo; also recorded: remarkable activity; also recorded: more active in this model than DMP840, compounds 22 and 23, and cytoxan; also recorded: more effective against B16 melanoma compared with DMP840

## O=C1c2cccc3cc([N+](=O)[O-])cc(c23)C(=O)N1CCNCCS(=O)(=O)CCN1C(=O)c2cccc3cc([N+](=O)[O-])cc(c23)C1=O [Compound 15, 5-[2-(3-Nitronaphthalene-1,8-dicarboximido)ethylamino]-1-(3-nitronaphthalene-1,8-dicarboximido)-3-sulfonylpentane hydromethanesulfonate]
[2]
  IC50: 22 nM
Lambda DNA
  IC50: 1030 nM
[3]
  IC50: 36 nM
[4]
  IC50: 17100 nM
[1]
  Ratio (AT/GC): 144.4
  IC50: 118 nM
[5]
  IC50: 29.9 nM
[6]
  IC50: 34 nM

## O=C1c2cccc3cc([N+](=O)[O-])cc(c23)C(=O)N1CCNCCSCCN1C(=O)c2cccc3cc([N+](=O)[O-])cc(c23)C1=O [Compound 10, 5-[2-(3-Nitronaphthalene-1,8-dicarboximido)ethylamino]-1-(3-nitronaphthalene-1,8-dicarboximido)-3-thiopentane]
Lambda DNA
  IC50: 7370 nM
[3]; Homo sapiens, MCF7, 144 h
  IC50: 9 nM
[4]
  IC50: 17200 nM
[1]
  Ratio (AT/GC): 22.3
  IC50: 770 nM
[5]; Mus musculus, P388, 72 h
  IC50: 56.5 nM
[6]; Mus musculus, B16, 72 h
  IC50: 33 nM

## O=C1c2cccc3cc([N+](=O)[O-])cc(c23)C(=O)N1CCNCCS(=O)(=O)CCN1C(=O)c2cccc3cc([N+](=O)[O-])cc(c23)C1=O [Compound 14]
[2]; Homo sapiens, HT-29, 144 h
  IC50: 44 nM
Lambda DNA
  IC50: 24200 nM
[3]
  IC50: 132 nM
[4]
  IC50: 43300 nM
[1]
  Ratio (AT/GC): 64.38
  IC50: 672 nM
[5]; Mus musculus, P388, 72 h
  IC50: 27 nM
[6]
  IC50: 86 nM
